Data reported in ChEMBL document CHEMBL3272074, “A new class of diuretics with the 1,4-dioxino(2,3-g)quinolone structure” (J Med Chem, 1976).
The source made the active and inactive calls. The rule behind the calls is not given here.

Assays:
Rattus norvegicus [1] = assay: Diuretic activity in po dosed albino Wistar-TNO rat assessed as 100% increase in urinary volume measured for 5 hrs; assay type: functional, Urine
Rattus norvegicus [2] = assay: Diuretic activity in po dosed albino Wistar-TNO rat assessed as increase in urinary volume measured for 5 hrs; assay type: functional, organism-based; details: Urine
Rattus norvegicus [3] = species: Rattus norvegicus; assay: Ratio of furosemide ED200 to compound ED200 for diuretic activity in albino Wistar-TNO rat; assay type: functional, Urine
Rattus norvegicus [4] = assay: Diuretic activity in po dosed albino Wistar-TNO rat assessed as rapid onset of action; assay type: functional, organism-based; details: Urine
Rattus norvegicus [5] = assay: Diuretic activity in po dosed albino Wistar-TNO rat assessed as time duration of action; assay type: functional, Urine
Rattus norvegicus [6] = assay: Natriuretic activity in po dosed albino Wistar-TNO rat assessed as Na/K ratio; assay type: functional, organism-based
Rattus norvegicus [7] = species: Rattus norvegicus; assay: Diuretic activity in experimentally-induced alkalosis rat model; assay type: functional, organism-based; details: Urine
Rattus norvegicus [8] = species: Rattus norvegicus; assay: Diuretic activity in experimentally-induced acidosis rat model; assay type: functional, organism-based; details: Urine
Rattus norvegicus [9] = assay: Diuretic activity in experimentally-induced oedema rat model; assay type: functional, organism-based; details: Urine
Rattus norvegicus [10] = assay: Diuretic activity in po dosed albino Wistar-TNO rat measured after chronic administration; assay type: functional, organism-based; details: Urine
Rattus norvegicus [11] = assay: Toxicity in po dosed albino Wistar-TNO rat at 50 times effective dose for diuresis measured after chronic administration; assay type: organism-based; details: in vivo
Mus musculus = species: Mus musculus; assay: Diuretic activity in mouse; assay type: functional, organism-based; details: Urine
Hamster = assay: Diuretic activity in hamster; assay type: functional, organism-based; details: Cricetinae; Urine
Rhesus monkey = assay: Diuretic activity in rhesus monkey; assay type: functional, organism-based; details: Macaca mulatta; Urine
Canis familiaris = species: Canis familiaris; assay: Natriuretic activity in non-loaded Beagle dog; assay type: functional, organism-based; details: Canis lupus familiaris
Rattus norvegicus [12] = assay: Toxicity in po dosed albino Wistar-TNO rat assessed as uric acid excretion; assay type: organism-based; details: in vivo
Rattus norvegicus [13] = assay: Diuretic activity in albino Wistar-TNO rat assessed as increase in urinary volume at 50 mg/kg, po measured for 5 hrs; assay type: functional, organism-based; design: dose 50 mg/kg; details: Urine

Question: How did the ED200 (Rattus norvegicus [1]) turn out when `CCOCC1COc2cc3c(=S)c(C(=O)OCC)c[nH]c3cc2O1` (stereo not given) was run?
Answer: The ED200 was 13 mg/kg.

Question: With `CCOCC1COc2c(cc3[nH]cc(C(=O)OCC)c(=O)c3c2Br)O1` (stereo not given) as the compound, how does the ED200 (Rattus norvegicus [1]) read?
Answer: The ED200 was 0.4 mg/kg.

Question: How did the ED200 (Rattus norvegicus [1]) turn out when `NS(=O)(=O)c1cc2c(cc1Cl)N=CNS2(=O)=O` [CHLOROTHIAZIDE] was run?
Answer: Its ED200 is 30 mg/kg.

Question: What about the Activity (Rattus norvegicus [2]) of the same compound?
Answer: The Activity was “Dose-dependent effect”.

Question: For `CCOCC1COc2c(cc3[nH]cc(C(=O)OCC)c(=O)c3c2[N+](=O)[O-])O1` (stereo not given), which ED200 (Rattus norvegicus [1]) is on record?
Answer: Its ED200 is 3 mg/kg.

Question: `CCOCC1COc2c(cc3[nH]cc(C(=O)O)c(=O)c3c2Cl)O1` (stereo not given) was tested. Which ED200 (Rattus norvegicus [1]) did it give?
Answer: Its ED200 is 0.14 mg/kg.

Question: What about the Ratio (Rattus norvegicus [3]) of the same compound?
Answer: Its Ratio is 200.

Question: And the Activity (Rattus norvegicus [4])?
Answer: Its Activity is “Active”.

Question: And the Time (Rattus norvegicus [5])?
Answer: The Time was 8 h.

Question: What about the Activity (Rattus norvegicus [6]) of the same compound?
Answer: The Activity was “Active”.

Question: And the Activity (Rattus norvegicus [7])?
Answer: Its Activity is “Active”.

Question: And the Activity (Rattus norvegicus [8])?
Answer: The Activity was “Active”.

Question: And the Activity (Rattus norvegicus [9])?
Answer: Its Activity is “Active”.

Question: And the Activity (Rattus norvegicus [10])?
Answer: The Activity was “Active”.

Question: What about the Activity (Rattus norvegicus [11]) of the same compound?
Answer: Its Activity is “Non-toxic”.

Question: And the Activity (Mus musculus)?
Answer: Its Activity is “inactive”.

Question: And the Activity (Hamster)?
Answer: Its Activity is “inactive”.

Question: And the Activity (Rhesus monkey)?
Answer: The Activity was “Active”.

Question: What about the Activity (Canis familiaris) of the same compound?
Answer: Its Activity is “Active”.

Question: What about the Activity (Rattus norvegicus [2]) of the same compound?
Answer: Its Activity is “Dose-dependent effect”.

Question: And the Activity (Rattus norvegicus [12])?
Answer: The Activity was “Toxic”.

Question: How did the ED200 (Rattus norvegicus [1]) turn out when `CCOCC1COc2cc3c(=O)c(C(=O)OCC)c[nH]c3cc2O1` (stereo not given) was run?
Answer: Its ED200 is 3.8 mg/kg.

Question: With `CCOCC1COc2c(cc3[nH]cc(C(=O)OCC)c(=O)c3c2Cl)O1` (stereo not given) [QUINCARBATE] as the compound, how does the ED200 (Rattus norvegicus [1]) read?
Answer: Its ED200 is 0.08 mg/kg.

Question: And the Ratio (Rattus norvegicus [3])?
Answer: Its Ratio is 200.

Question: What about the Activity (Rattus norvegicus [4]) of the same compound?
Answer: Its Activity is “Active”.

Question: And the Time (Rattus norvegicus [5])?
Answer: Its Time is 8 h.

Question: And the Activity (Rattus norvegicus [6])?
Answer: Its Activity is “Active”.

Question: What about the Activity (Rattus norvegicus [7]) of the same compound?
Answer: The Activity was “Active”.

Question: What about the Activity (Rattus norvegicus [8]) of the same compound?
Answer: Its Activity is “Active”.

Question: And the Activity (Rattus norvegicus [9])?
Answer: Its Activity is “Active”.

Question: What about the Activity (Rattus norvegicus [10]) of the same compound?
Answer: Its Activity is “Active”.

Question: And the Activity (Rattus norvegicus [11])?
Answer: The Activity was “Non-toxic”.

Question: And the Activity (Mus musculus)?
Answer: The Activity was “inactive”.

Question: What about the Activity (Hamster) of the same compound?
Answer: Its Activity is “inactive”.

Question: What about the Activity (Rhesus monkey) of the same compound?
Answer: The Activity was “Active”.

Question: And the Activity (Canis familiaris)?
Answer: The Activity was “Active”.

Question: What about the Activity (Rattus norvegicus [2]) of the same compound?
Answer: Its Activity is “Dose-dependent effect”.

Question: And the Activity (Rattus norvegicus [12])?
Answer: The Activity was “Toxic”.

Question: For `NS(=O)(=O)c1cc(C(=O)O)c(NCc2ccco2)cc1Cl` [FUROSEMIDE], which ED200 (Rattus norvegicus [1]) is on record?
Answer: The ED200 was 28 mg/kg.

Question: What about the Activity (Rattus norvegicus [2]) of the same compound?
Answer: Its Activity is “Dose-dependent effect”.

Question: Which ED200 (Rattus norvegicus [1]) does the source give for `CCOCC1COc2cc3[nH]cc(C(=O)OCC)c(=O)c3c(Cl)c2O1` (stereo not given) here?
Answer: The ED200 was 2.5 mg/kg.

Question: For `CCOCC1COc2cc3c(=O)c(C(=O)OCC)c[nH]c3c(Cl)c2O1` (stereo not given), which Activity (Rattus norvegicus [13]) is on record?
Answer: The Activity was “inactive”.

Question: Which Activity (Rattus norvegicus [13]) does the source give for `CCOCC1COc2c(c(Cl)c3[nH]cc(C(=O)OCC)c(=O)c3c2Cl)O1` (stereo not given) here?
Answer: Its Activity is “inactive”.

Question: How did the ED200 (Rattus norvegicus [1]) turn out when `CCOCC1COc2c(cc3[nH]cc(C(=O)OCC)c(=O)c3c2C(F)(F)F)O1` (stereo not given) was run?
Answer: Its ED200 is 0.5 mg/kg.

Question: Which ED200 (Rattus norvegicus [1]) does the source give for `CCOCC1COc2c(cc3[nH]cc(C(=O)OCC)c(=N)c3c2Cl)O1` (stereo not given) here?
Answer: The ED200 was 2 mg/kg.
